In the NIST ThermoML archive (doi:10.1021/acs.jced.9b00078):
± gives the expanded uncertainty stated by the source.

Conditions: Liquid, Other PVT measurement

In the case of `CCCCCCCCCCCCCCCC` [hexadecane], the mass density (298.2 K, 10000 kPa) is reported as 775.86 ± 2 kg/m3, the mass density (298.2 K, 20000 kPa) is reported as 782.89 ± 2 kg/m3 and the mass density (298.2 K, 30000 kPa) is reported as 788.75 ± 2 kg/m3. For the same molecule, the mass density (298.2 K, 40000 kPa) was 793.81 ± 2 kg/m3, the mass density (298.2 K, 50000 kPa) was 799.18 ± 2 kg/m3 and the mass density (303.2 K, 10000 kPa) was 773.66 ± 2 kg/m3. The mass density (303.2 K, 20000 kPa) was 779.38 ± 2 kg/m3, the mass density (303.2 K, 30000 kPa) was 785.01 ± 2 kg/m3 and the mass density (303.2 K, 40000 kPa) was 790.38 ± 2 kg/m3. The mass density (303.2 K, 50000 kPa) was 795.64 ± 2 kg/m3, the mass density (313.2 K, 10000 kPa) was 764.59 ± 2 kg/m3 and the mass density (313.2 K, 20000 kPa) was 773.09 ± 2 kg/m3. The mass density (313.2 K, 30000 kPa) was 778.81 ± 2 kg/m3, the mass density (313.2 K, 40000 kPa) was 784.36 ± 2 kg/m3 and the mass density (313.2 K, 50000 kPa) was 789.46 ± 2 kg/m3. The mass density (323.2 K, 10000 kPa) was 759.8 ± 2 kg/m3, the mass density (323.2 K, 20000 kPa) was 766.48 ± 2 kg/m3 and the mass density (323.2 K, 30000 kPa) was 773.19 ± 2 kg/m3. It also gave a mass density (323.2 K, 40000 kPa) of 778.83 ± 2 kg/m3, a mass density (323.2 K, 50000 kPa) of 784.38 ± 2 kg/m3 and a mass density (333.2 K, 10000 kPa) of 753.38 ± 2 kg/m3. It also gave a mass density (333.2 K, 20000 kPa) of 760.44 ± 2 kg/m3, a mass density (333.2 K, 30000 kPa) of 767.3 ± 2 kg/m3 and a mass density (333.2 K, 40000 kPa) of 773.53 ± 2 kg/m3. For the same molecule, the mass density (333.2 K, 50000 kPa) was 779.1 ± 2 kg/m3, the mass density (348.2 K, 10000 kPa) was 744.11 ± 2 kg/m3 and the mass density (348.2 K, 20000 kPa) was 751.32 ± 2 kg/m3. It also gave a mass density (348.2 K, 30000 kPa) of 758.67 ± 2 kg/m3, a mass density (348.2 K, 40000 kPa) of 765.1 ± 2 kg/m3 and a mass density (348.2 K, 50000 kPa) of 770.98 ± 2 kg/m3. The mass density (353.2 K, 10000 kPa) was 740.03 ± 2 kg/m3, the mass density (353.2 K, 20000 kPa) was 748.27 ± 2 kg/m3 and the mass density (353.2 K, 30000 kPa) was 755.72 ± 2 kg/m3. For the same molecule, the mass density (353.2 K, 40000 kPa) was 762.19 ± 2 kg/m3, the mass density (353.2 K, 50000 kPa) was 768.11 ± 2 kg/m3 and the mass density (373.2 K, 10000 kPa) was 727.81 ± 2.1 kg/m3. The mass density (373.2 K, 20000 kPa) was 736.02 ± 2.1 kg/m3, the mass density (373.2 K, 30000 kPa) was 744.18 ± 2.1 kg/m3 and the mass density (373.2 K, 40000 kPa) was 751.02 ± 2.1 kg/m3. The mass density (373.2 K, 50000 kPa) was 757.42 ± 2.1 kg/m3, the mass density (393.2 K, 10000 kPa) was 713.25 ± 2.1 kg/m3 and the mass density (393.2 K, 20000 kPa) was 723.64 ± 2.1 kg/m3. It also gave a mass density (393.2 K, 30000 kPa) of 732.3 ± 2.1 kg/m3, a mass density (393.2 K, 40000 kPa) of 739.4 ± 2.1 kg/m3 and a mass density (393.2 K, 50000 kPa) of 746.41 ± 2.1 kg/m3. It also gave a mass density (413.2 K, 10000 kPa) of 700.27 ± 2.1 kg/m3, a mass density (413.2 K, 20000 kPa) of 711.23 ± 2.1 kg/m3 and a mass density (413.2 K, 30000 kPa) of 720.49 ± 2.1 kg/m3. For the same molecule, the mass density (413.2 K, 40000 kPa) was 728.42 ± 2.1 kg/m3, the mass density (413.2 K, 50000 kPa) was 735.85 ± 2.1 kg/m3 and the mass density (423.2 K, 10000 kPa) was 694.3 ± 2.1 kg/m3. The mass density (423.2 K, 20000 kPa) was 705.01 ± 2.1 kg/m3, the mass density (423.2 K, 30000 kPa) was 714.62 ± 2.1 kg/m3 and the mass density (423.2 K, 40000 kPa) was 722.88 ± 2.1 kg/m3. For the same molecule, the mass density (423.2 K, 50000 kPa) was 730.73 ± 2.1 kg/m3, the mass density (433.2 K, 10000 kPa) was 687.01 ± 2.1 kg/m3 and the mass density (433.2 K, 20000 kPa) was 698.74 ± 2.1 kg/m3. It also gave a mass density (433.2 K, 30000 kPa) of 708.69 ± 2.1 kg/m3, a mass density (433.2 K, 40000 kPa) of 717.4 ± 2.1 kg/m3 and a mass density (433.2 K, 50000 kPa) of 725.14 ± 2.1 kg/m3. It also gave a mass density (453.2 K, 10000 kPa) of 674.02 ± 2.1 kg/m3, a mass density (453.2 K, 20000 kPa) of 686.53 ± 2.1 kg/m3 and a mass density (453.2 K, 30000 kPa) of 696.77 ± 2.1 kg/m3. The mass density (453.2 K, 40000 kPa) was 706.13 ± 2.1 kg/m3, the mass density (453.2 K, 50000 kPa) was 714.59 ± 2.1 kg/m3 and the mass density (463.2 K, 10000 kPa) was 669.34 ± 2.1 kg/m3. For the same molecule, the mass density (463.2 K, 20000 kPa) was 680.32 ± 2.1 kg/m3, the mass density (463.2 K, 30000 kPa) was 690.8 ± 2.1 kg/m3 and the mass density (463.2 K, 40000 kPa) was 700.49 ± 2.1 kg/m3. The mass density (463.2 K, 50000 kPa) was 709.18 ± 2.1 kg/m3, the mass density (473.2 K, 10000 kPa) was 660.45 ± 2.1 kg/m3 and the mass density (473.2 K, 20000 kPa) was 673.95 ± 2.1 kg/m3. The mass density (473.2 K, 30000 kPa) was 685.23 ± 2.1 kg/m3, the mass density (473.2 K, 40000 kPa) was 695.19 ± 2.1 kg/m3 and the mass density (473.2 K, 50000 kPa) was 704.05 ± 2.1 kg/m3.
